Data: US12122816B2, “Long acting peptide tyrosine tyrosine (PYY) analogs and methods of use” (Intarcia Therapeutics, Inc., priority 2020, dated 2024)

Assays:
human Y2 receptor = biological target: T1, human Y2 receptor (Homo sapiens, UniProt P49146); assay: NPY receptor functional assay (cAMP, HEK-CNG cells, ACTOne membrane potential dye); assay type: cell-based; details: NPY2R pEC50, HEK-CNG cells; standard PYY(3-36); species (human or rat) not given
T1 sequence (P49146 1-381): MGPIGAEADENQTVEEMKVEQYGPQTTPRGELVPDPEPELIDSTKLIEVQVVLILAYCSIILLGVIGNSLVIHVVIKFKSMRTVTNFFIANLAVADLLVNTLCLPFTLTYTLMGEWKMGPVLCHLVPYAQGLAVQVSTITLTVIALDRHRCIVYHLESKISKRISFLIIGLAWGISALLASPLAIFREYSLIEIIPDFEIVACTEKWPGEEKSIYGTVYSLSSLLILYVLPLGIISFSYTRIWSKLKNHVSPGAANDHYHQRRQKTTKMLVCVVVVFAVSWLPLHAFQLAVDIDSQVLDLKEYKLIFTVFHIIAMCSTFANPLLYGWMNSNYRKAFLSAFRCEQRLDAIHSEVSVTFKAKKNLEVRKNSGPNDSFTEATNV
How it was run: (§1)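 HEK-CNG cells stably expressing each human receptor; peptides added in triplicate for 50 minutes at room temperature, with agonism read as decreased isoproterenol-induced membrane potential dye signal (final/initial read).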

human Y5 receptor = biological target: T2, human Y5 receptor (Homo sapiens, UniProt Q15761); assay: as above; assay type: cell-based; details: NPY5R pEC50, HEK-CNG cells; standard NPY; species (human or rat) not given
T2 sequence (Q15761 1-445): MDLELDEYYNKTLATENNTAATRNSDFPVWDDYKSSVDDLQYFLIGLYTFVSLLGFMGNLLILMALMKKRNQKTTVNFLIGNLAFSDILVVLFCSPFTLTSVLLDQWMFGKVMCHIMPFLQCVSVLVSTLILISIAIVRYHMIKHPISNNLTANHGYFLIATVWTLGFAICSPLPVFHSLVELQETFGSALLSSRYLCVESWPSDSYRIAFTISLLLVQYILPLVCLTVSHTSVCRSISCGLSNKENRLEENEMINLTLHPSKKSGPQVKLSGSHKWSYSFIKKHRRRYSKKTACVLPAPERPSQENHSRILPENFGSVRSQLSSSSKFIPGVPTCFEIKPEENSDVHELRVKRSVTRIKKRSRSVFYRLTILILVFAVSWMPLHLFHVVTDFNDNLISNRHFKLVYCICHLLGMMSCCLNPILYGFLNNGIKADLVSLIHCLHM
How it was run: as §1

[1] = In vitro metabolic stability in kidney brush border membranes (kBBM); assay type: in vitro ADME; details: pH 7.4, human kBBM 50 mcg protein/mL, 1 mcM peptide, 37° C., read-out: hkBBM t½ (converted)
Protocol: In vitro incubations in kidney brush border membrane (kBBM) preparations were used to characterize the ability of peptides to resist degradation by proteases and peptidases in the systemic circulation. kBBM were selected because they contain a high concentration of a diverse set of proteases and peptidases, many of which are present throughout the body.
Brush border membranes from rat and human kidney tissue were prepared via centrifugation and stored at −70° C. Thawed stocks of rat or human kBBM were diluted to the appropriate concentration in 25 mM HEPES buffer (pH 7.4) containing 1% casein and aliquoted into a 96-well plate. The kBBM solutions were pre-warmed for 10 minutes at 37° C. […] The final concentration of kBBM in each incubation was 50 mcg protein/mL. Reactions were maintained at 37° C. in a shaking water bath. […] Quenched samples were centrifuged at 2178×g for 10 min and then a portion of the supernatants were transferred to a clean 96-well plate and diluted 1:1 with water. Samples were analyzed by UPLC-MS/MS.

[2] = In vitro stability in subcutaneous (SC) tissue homogenates; assay type: in vitro ADME; details: subcutaneous tissue homogenate, pH 7.4; human SC tissue homogenate 1.0 mg protein/mL, 10 mcM peptide, 37° C.; read-out: (H)SC tissue stability t½ (converted)
Protocol: In vitro incubations in subcutaneous (SC) tissue homogenates were used to characterize the ability of peptides to resist pre-systemic degradation by proteases and peptidases after SC administration. […] Peptides with high SC bioavailability are stable in this assay, while peptides with low SC bioavailability are unstable in this assay.
Human SC tissue was homogenized in cold 25 mM HEPES buffer (pH 7.4, 10-fold volume based on sample weight), and then filtered through a double layer of cheesecloth. The filtrates were aliquoted, flash frozen on a methanol/dry ice bath and stored at −80° C. The protein concentration of each pooled batch was determined using the BCA protein assay. Thawed stocks of human SC tissue homogenates were diluted to 1.0 mg protein/mL in 25 mM HEPES buffer (pH 7.4) and aliquoted into a 96-well plate. The diluted SC homogenates were pre-warmed for 10 minutes at 37° C. […] Reactions were maintained at 37° C. in a shaking water bath. […] Quenched samples were centrifuged at 2178×g for 10 min and then a portion of the supernatants were transferred to a clean 96-well plate and diluted 1:10 with water. Samples were analyzed by UPLC-MS/MS.

human Y4 receptor = human Y4 receptor (Homo sapiens, UniProt P50391); assay: NPY receptor functional assay (cAMP, HEK-CNG cells, ACTOne membrane potential dye); assay type: cell-based; details: standard PP, species (human or rat) not given
Sequence of human Y4 receptor (P50391 whole entry): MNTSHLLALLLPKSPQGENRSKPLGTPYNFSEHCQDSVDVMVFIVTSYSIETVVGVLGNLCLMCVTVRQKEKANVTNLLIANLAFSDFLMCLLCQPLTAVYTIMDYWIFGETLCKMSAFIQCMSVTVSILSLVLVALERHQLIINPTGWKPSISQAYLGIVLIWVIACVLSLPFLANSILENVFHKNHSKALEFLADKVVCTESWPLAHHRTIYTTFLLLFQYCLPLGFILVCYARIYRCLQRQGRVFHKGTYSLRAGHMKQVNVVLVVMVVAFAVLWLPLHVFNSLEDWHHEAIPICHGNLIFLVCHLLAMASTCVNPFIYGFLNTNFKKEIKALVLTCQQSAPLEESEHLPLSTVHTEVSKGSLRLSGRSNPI
How it was run: as §1

| Structure (SMILES) | EC50 (human Y2 receptor) | EC50 (human Y5 receptor) | half-life at 1 mcM [1] | half-life at 10 mcM [2] | NPY4R pEC50 (human Y4 receptor) |
| --- | --- | --- | --- | --- | --- |
| CC(C)C[C@H](NC(=O)[C@H](CC(=O)O)NC(=O)[C@H](CCCCN)NC(=O)[C@H](Cc1ccc(O)cc1)NC(=O)[C@H](Cc1ccc(O)cc1)NC(=O)[C@H](CCCNC(=N)N)NC(=O)[C@H](CC(=O)O)NC(=O)[C@H](Cc1c[nH]c2ccccc12)NC(=O)[C@H](CCC(=O)O)NC(=O)[C@H](CCCCN)NC(=O)[C@@H]1CCCN1C(=O)[C@H](CO)NC(=O)[C@H](C)NC(=O)[C@H](CC(=O)O)NC(=O)[C@H](CCC(=O)O)NC(=O)CNC(=O)[C@@H]1CCCN1C(=O)[C@H](CCCCNC(=O)CC[C@H](NC(=O)CC[C@H](NC(=O)CCCCCCCCCCCCCCCCC(=O)O)C(=O)O)C(=O)O)NC(=O)[C@H](CCC(=O)O)NC(=O)[C@@H]1CCCN1C(=O)[C@H](CCCCN)NC(=O)[C@@H]1CCCN1)C(=O)N[C@@H](CCCNC(=N)N)C(=O)N[C@@H](Cc1c[nH]cn1)C(=O)N[C@@H](Cc1ccc(O)cc1)C(=O)N[C@@H](CC(C)C)C(=O)N[C@@H](CC(N)=O)C(=O)N[C@@H](Cc1c[nH]c2ccccc12)C(=O)N[C@@H](CC(C)C)C(=O)N[C@H](C(=O)N[C@@H](CCCNC(=N)N)C(=O)N[C@@H](CCC(N)=O)C(=O)N[C@@H](CCCNC(=N)N)C(=O)N[C@@H](Cc1ccccc1)C(N)=O)[C@@H](C)O [Compound A35] | 0.0316 nM | 0.794 nM | 5.6 h | 1.3 h | – |
| CC(C)C[C@H](NC(=O)[C@H](CC(=O)O)NC(=O)[C@H](CCCCNC(=O)CC[C@H](NC(=O)CC[C@H](NC(=O)CCCCCCCCCCCCCCCCCCC(=O)O)C(=O)O)C(=O)O)NC(=O)[C@H](Cc1ccc(O)cc1)NC(=O)[C@H](Cc1ccc(O)cc1)NC(=O)[C@H](CCCNC(=N)N)NC(=O)[C@H](CC(N)=O)NC(=O)[C@H](Cc1c[nH]c2ccccc12)NC(=O)[C@H](CCC(=O)O)NC(=O)[C@H](CCC(=O)O)NC(=O)[C@@H]1CCCN1C(=O)[C@H](CO)NC(=O)[C@H](C)NC(=O)[C@H](CC(=O)O)NC(=O)[C@H](CCCCN)NC(=O)CNC(=O)[C@@H]1CCCN1C(=O)[C@H](C)NC(=O)[C@H](CCC(=O)O)NC(=O)[C@@H]1CCCN1C(=O)[C@H](CCCCN)NC(=O)[C@@H]1CCCN1)C(=O)N[C@@H](CCCNC(=N)N)C(=O)N[C@@H](Cc1c[nH]cn1)C(=O)N[C@@H](Cc1ccc(O)cc1)C(=O)N[C@@H](CC(C)C)C(=O)N[C@@H](CC(N)=O)C(=O)N[C@@H](Cc1c[nH]c2ccccc12)C(=O)N[C@@H](CC(C)C)C(=O)N[C@H](C(=O)N[C@@H](CCCNC(=N)N)C(=O)N[C@@H](CCC(N)=O)C(=O)N[C@@H](CCCNC(=N)N)C(=O)N[C@@H](Cc1ccccc1)C(N)=O)[C@@H](C)O [Compound A54] | 20 nM | 10 nM | – | – | inactive |
| CC(C)C[C@H](NC(=O)[C@H](Cc1ccc(O)cc1)NC(=O)[C@H](Cc1c[nH]cn1)NC(=O)[C@H](CCCNC(=N)N)NC(=O)[C@H](C)NC(=O)[C@H](CC(=O)O)NC(=O)[C@H](C)NC(=O)[C@H](Cc1ccc(O)cc1)NC(=O)[C@H](Cc1ccc(O)cc1)NC(=O)[C@H](CCCNC(=N)N)NC(=O)[C@H](CC(N)=O)NC(=O)[C@H](Cc1c[nH]c2ccccc12)NC(=O)[C@H](CCC(=O)O)NC(=O)[C@H](CCCCNC(=O)CC[C@H](NC(=O)CC[C@H](NC(=O)CCCCCCCCCCCCCCCCCCC(=O)O)C(=O)O)C(=O)O)NC(=O)[C@@H]1CCCN1C(=O)[C@H](CO)NC(=O)[C@H](C)NC(=O)[C@H](CC(=O)O)NC(=O)[C@H](CCCCN)NC(=O)CNC(=O)[C@@H]1CCCN1C(=O)[C@H](C)NC(=O)[C@H](CCC(=O)O)NC(=O)[C@@H]1CCCN1C(=O)[C@H](CCCCN)NC(=O)[C@@H]1CCCN1)C(=O)N[C@@H](CC(N)=O)C(=O)N[C@@H](Cc1c[nH]c2ccccc12)C(=O)N[C@@H](CC(C)C)C(=O)N[C@H](C(=O)N[C@@H](CCCNC(=N)N)C(=O)N[C@@H](CCC(N)=O)C(=O)N[C@@H](CCCNC(=N)N)C(=O)N(C)[C@@H](Cc1ccc(O)cc1)C(N)=O)[C@@H](C)O [Compound A8] | 0.251 nM | 79.4 nM | – | – | inactive |
| CC(C)C[C@H](NC(=O)[C@H](CC(=O)O)NC(=O)[C@H](C)NC(=O)[C@H](Cc1ccc(O)cc1)NC(=O)[C@H](Cc1ccc(O)cc1)NC(=O)[C@H](CCCNC(=N)N)NC(=O)[C@H](CC(N)=O)NC(=O)[C@H](Cc1c[nH]c2ccccc12)NC(=O)[C@H](CCC(=O)O)NC(=O)[C@H](CCC(=O)O)NC(=O)[C@@H]1CCCN1C(=O)[C@H](CO)NC(=O)[C@H](C)NC(=O)[C@H](CC(=O)O)NC(=O)[C@H](CCCCN)NC(=O)CNC(=O)[C@@H]1CCCN1C(=O)[C@H](C)NC(=O)[C@H](CCC(=O)O)NC(=O)[C@@H]1CCCN1C(=O)[C@H](CCCCN)NC(=O)[C@@H]1CCCN1)C(=O)N[C@@H](CCCCNC(=O)CC[C@H](NC(=O)CC[C@H](NC(=O)CCCCCCCCCCCCCCCCCCC(=O)O)C(=O)O)C(=O)O)C(=O)N[C@@H](Cc1c[nH]cn1)C(=O)N[C@@H](Cc1ccc(O)cc1)C(=O)N[C@@H](CC(C)C)C(=O)N[C@@H](CC(N)=O)C(=O)N[C@@H](Cc1c[nH]c2ccccc12)C(=O)N[C@@H](CC(C)C)C(=O)N[C@H](C(=O)N[C@@H](CCCNC(=N)N)C(=O)N[C@@H](CCC(N)=O)C(=O)N[C@@H](CCCNC(=N)N)C(=O)N[C@@H](Cc1ccccc1)C(N)=O)[C@@H](C)O [Compound A53] | 2 nM | 50.1 nM | – | – | inactive |
| CC(C)C[C@H](NC(=O)[C@H](CC(=O)O)NC(=O)[C@H](C)NC(=O)[C@H](Cc1ccc(O)cc1)NC(=O)[C@H](Cc1ccc(O)cc1)NC(=O)[C@H](CCCNC(=N)N)NC(=O)[C@H](CCCCNC(=O)CC[C@H](NC(=O)CC[C@H](NC(=O)CCCCCCCCCCCCCCCCCCC(=O)O)C(=O)O)C(=O)O)NC(=O)[C@H](Cc1c[nH]c2ccccc12)NC(=O)[C@H](CCC(=O)O)NC(=O)[C@H](CCC(=O)O)NC(=O)[C@@H]1CCCN1C(=O)[C@H](CO)NC(=O)[C@H](C)NC(=O)[C@H](CC(=O)O)NC(=O)[C@H](CCCCN)NC(=O)CNC(=O)[C@@H]1CCCN1C(=O)[C@H](C)NC(=O)[C@H](CCC(=O)O)NC(=O)[C@@H]1CCCN1C(=O)[C@H](CCCCN)NC(=O)[C@@H]1CCCN1)C(=O)N[C@@H](CCCNC(=N)N)C(=O)N[C@@H](Cc1c[nH]cn1)C(=O)N[C@@H](Cc1ccc(O)cc1)C(=O)N[C@@H](CC(C)C)C(=O)N[C@@H](CC(N)=O)C(=O)N[C@@H](Cc1c[nH]c2ccccc12)C(=O)N[C@@H](CC(C)C)C(=O)N[C@H](C(=O)N[C@@H](CCCNC(=N)N)C(=O)N[C@@H](CCC(N)=O)C(=O)N[C@@H](CCCNC(=N)N)C(=O)N[C@@H](Cc1ccccc1)C(N)=O)[C@@H](C)O [Compound A55] | 1.26 nM | 20 nM | – | – | inactive |
